The supplement of paper PMC10307832

How the values were obtained:
Experiment in all cases: relative viability (nuclei count vs DMSO), 5 days (fraction); higher = more cells survive
CAP-232 = compound: C[C@H]([C@@H](C(=O)N)NC(=O)[C@@H]1CSSC[C@@H](C(=O)N[C@H](C(=O)N[C@@H](C(=O)N[C@H](C(=O)N1)CCCCN)CC2=CNC3=CC=CC=C32)CC4=CC=C(C=C4)O)NC(=O)[C@@H](CC5=CC=CC=C5)N)O [CAP-232]
Procedure, shortened: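 For viability, nuclei in each treated well were divided by nuclei in vehicle wells and the median across plates was taken. Lung cancer cell lines in 1536-well plates were pinned with five library-drug doses (not always all listed) spaced by √10, cultured 5 days without medium change, and imaged at 4× after Hoechst staining, with plates passing only at control CV below 25% and at least one doubling.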

CAP-232 + Bortezomib = compound: C[C@H]([C@@H](C(=O)N)NC(=O)[C@@H]1CSSC[C@@H](C(=O)N[C@H](C(=O)N[C@@H](C(=O)N[C@H](C(=O)N1)CCCCN)CC2=CNC3=CC=CC=C32)CC4=CC=C(C=C4)O)NC(=O)[C@@H](CC5=CC=CC=C5)N)O [CAP-232] + CC(C)C[C@H](NC(=O)[C@H](Cc1ccccc1)NC(=O)c1cnccn1)B(O)O [Bortezomib] (partner 0.002 µM)
Procedure, shortened: (§1)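 Relative viability divides the nuclei count in treated wells by that in vehicle wells. Lung cancer cell lines were seeded in 1536-well plates, dosed by pin tool the next day, and fixed and stained after 5 days in one step with final 0.05% Triton X-100, 1% formaldehyde and 1 ug/ml Hoechst. Dosing was a single drug or a fixed anchor-drug dose plus five library-drug doses (not always all listed) in √10 steps, and values are medians of duplicate plates imaged at 4×.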

CAP-232 + Navitoclax = compound: C[C@H]([C@@H](C(=O)N)NC(=O)[C@@H]1CSSC[C@@H](C(=O)N[C@H](C(=O)N[C@@H](C(=O)N[C@H](C(=O)N1)CCCCN)CC2=CNC3=CC=CC=C32)CC4=CC=C(C=C4)O)NC(=O)[C@@H](CC5=CC=CC=C5)N)O [CAP-232] + CC1(C)CCC(c2ccc(Cl)cc2)=C(CN2CCN(c3ccc(C(=O)NS(=O)(=O)c4ccc(N[C@H](CCN5CCOCC5)CSc5ccccc5)c(S(=O)(=O)C(F)(F)F)c4)cc3)CC2)C1 [Navitoclax] (partner 0.5 µM)
Procedure, shortened: as §1

CAP-232 + Foretinib = compound: C[C@H]([C@@H](C(=O)N)NC(=O)[C@@H]1CSSC[C@@H](C(=O)N[C@H](C(=O)N[C@@H](C(=O)N[C@H](C(=O)N1)CCCCN)CC2=CNC3=CC=CC=C32)CC4=CC=C(C=C4)O)NC(=O)[C@@H](CC5=CC=CC=C5)N)O [CAP-232] + COc1cc2c(Oc3ccc(NC(=O)C4(C(=O)Nc5ccc(F)cc5)CC4)cc3F)ccnc2cc1OCCCN1CCOCC1 [Foretinib] (partner 0.25 µM)
Procedure, shortened: as §1

CAP-232 + Lapatinib = compound: C[C@H]([C@@H](C(=O)N)NC(=O)[C@@H]1CSSC[C@@H](C(=O)N[C@H](C(=O)N[C@@H](C(=O)N[C@H](C(=O)N1)CCCCN)CC2=CNC3=CC=CC=C32)CC4=CC=C(C=C4)O)NC(=O)[C@@H](CC5=CC=CC=C5)N)O [CAP-232] + CS(=O)(=O)CCNCc1ccc(-c2ccc3ncnc(Nc4ccc(OCc5cccc(F)c5)c(Cl)c4)c3c2)o1 [Lapatinib] (partner 2 µM)
Procedure, shortened: as §1

CAP-232 + Pictilisib = compound: C[C@H]([C@@H](C(=O)N)NC(=O)[C@@H]1CSSC[C@@H](C(=O)N[C@H](C(=O)N[C@@H](C(=O)N[C@H](C(=O)N1)CCCCN)CC2=CNC3=CC=CC=C32)CC4=CC=C(C=C4)O)NC(=O)[C@@H](CC5=CC=CC=C5)N)O [CAP-232] + CS(=O)(=O)N1CCN(Cc2cc3nc(-c4cccc5[nH]ncc45)nc(N4CCOCC4)c3s2)CC1 [Pictilisib] (partner 1 µM)
Procedure, shortened: as §1

CAP-232 + Crizotinib = compound: C[C@H]([C@@H](C(=O)N)NC(=O)[C@@H]1CSSC[C@@H](C(=O)N[C@H](C(=O)N[C@@H](C(=O)N[C@H](C(=O)N1)CCCCN)CC2=CNC3=CC=CC=C32)CC4=CC=C(C=C4)O)NC(=O)[C@@H](CC5=CC=CC=C5)N)O [CAP-232] + C[C@@H](Oc1cc(-c2cnn(C3CCNCC3)c2)cnc1N)c1c(Cl)ccc(F)c1Cl [Crizotinib] (partner 1 µM)
Procedure, shortened: as §1

CAP-232 + Linsitinib = compound: C[C@H]([C@@H](C(=O)N)NC(=O)[C@@H]1CSSC[C@@H](C(=O)N[C@H](C(=O)N[C@@H](C(=O)N[C@H](C(=O)N1)CCCCN)CC2=CNC3=CC=CC=C32)CC4=CC=C(C=C4)O)NC(=O)[C@@H](CC5=CC=CC=C5)N)O [CAP-232] + C[C@]1(O)C[C@@H](c2nc(-c3ccc4ccc(-c5ccccc5)nc4c3)c3c(N)nccn32)C1 [Linsitinib] (partner 1 µM)
Procedure, shortened: as §1

CAP-232 + Alpelisib = compound: C[C@H]([C@@H](C(=O)N)NC(=O)[C@@H]1CSSC[C@@H](C(=O)N[C@H](C(=O)N[C@@H](C(=O)N[C@H](C(=O)N1)CCCCN)CC2=CNC3=CC=CC=C32)CC4=CC=C(C=C4)O)NC(=O)[C@@H](CC5=CC=CC=C5)N)O [CAP-232] + Cc1nc(NC(=O)N2CCC[C@H]2C(N)=O)sc1-c1ccnc(C(C)(C)C(F)(F)F)c1 [Alpelisib] (partner 2 µM)
Procedure, shortened: as §1

CAP-232 + Olaparib = compound: C[C@H]([C@@H](C(=O)N)NC(=O)[C@@H]1CSSC[C@@H](C(=O)N[C@H](C(=O)N[C@@H](C(=O)N[C@H](C(=O)N1)CCCCN)CC2=CNC3=CC=CC=C32)CC4=CC=C(C=C4)O)NC(=O)[C@@H](CC5=CC=CC=C5)N)O [CAP-232] + O=C(c1cc(Cc2n[nH]c(=O)c3ccccc23)ccc1F)N1CCN(C(=O)C2CC2)CC1 [Olaparib] (partner 8 µM)
Procedure, shortened: as §1

| Cell Line | relative viability (CAP-232; 0.4 µM) | relative viability (CAP-232; 1.265 µM) | relative viability (CAP-232; 4 µM) | relative viability (CAP-232; 12.65 µM) | relative viability (CAP-232 + Bortezomib; first compound 0.4 µM) | relative viability (CAP-232 + Bortezomib; first compound 1.265 µM) | relative viability (CAP-232 + Bortezomib; first compound 4 µM) | relative viability (CAP-232 + Bortezomib; first compound 12.65 µM) | relative viability (CAP-232 + Navitoclax; first compound 0.4 µM) | relative viability (CAP-232 + Navitoclax; first compound 1.265 µM) | relative viability (CAP-232 + Navitoclax; first compound 4 µM) | relative viability (CAP-232 + Navitoclax; first compound 12.65 µM) | relative viability (CAP-232 + Foretinib; first compound 0.4 µM) | relative viability (CAP-232 + Foretinib; first compound 1.265 µM) | relative viability (CAP-232 + Foretinib; first compound 4 µM) | relative viability (CAP-232 + Foretinib; first compound 12.65 µM) | relative viability (CAP-232 + Lapatinib; first compound 0.4 µM) | relative viability (CAP-232 + Lapatinib; first compound 1.265 µM) | relative viability (CAP-232 + Lapatinib; first compound 4 µM) | relative viability (CAP-232 + Lapatinib; first compound 12.65 µM) | relative viability (CAP-232 + Pictilisib; first compound 0.4 µM) | relative viability (CAP-232 + Pictilisib; first compound 1.265 µM) | relative viability (CAP-232 + Pictilisib; first compound 4 µM) | relative viability (CAP-232 + Pictilisib; first compound 12.65 µM) | relative viability (CAP-232 + Crizotinib; first compound 0.4 µM) | relative viability (CAP-232 + Crizotinib; first compound 1.265 µM) | relative viability (CAP-232 + Crizotinib; first compound 4 µM) | relative viability (CAP-232 + Crizotinib; first compound 12.65 µM) | relative viability (CAP-232 + Linsitinib; first compound 0.4 µM) | relative viability (CAP-232 + Linsitinib; first compound 1.265 µM) | relative viability (CAP-232 + Linsitinib; first compound 4 µM) | relative viability (CAP-232 + Linsitinib; first compound 12.65 µM) | relative viability (CAP-232 + Alpelisib; first compound 0.4 µM) | relative viability (CAP-232 + Alpelisib; first compound 1.265 µM) | relative viability (CAP-232 + Alpelisib; first compound 4 µM) | relative viability (CAP-232 + Alpelisib; first compound 12.65 µM) | relative viability (CAP-232 + Olaparib; first compound 0.4 µM) | relative viability (CAP-232 + Olaparib; first compound 1.265 µM) | relative viability (CAP-232 + Olaparib; first compound 4 µM) | relative viability (CAP-232 + Olaparib; first compound 12.65 µM) |
| --- | --- | --- | --- | --- | --- | --- | --- | --- | --- | --- | --- | --- | --- | --- | --- | --- | --- | --- | --- | --- | --- | --- | --- | --- | --- | --- | --- | --- | --- | --- | --- | --- | --- | --- | --- | --- | --- | --- | --- | --- |
| Calu-6 | 1.12 | 1.02 | 1.15 | 0.74 | 1.16 | 1.04 | 0.947 | 0.653 | 0.963 | 0.941 | 0.831 | 0.446 | 0.867 | 1.02 | 0.995 | 0.561 | 1.26 | 1.03 | 1.15 | 0.664 | 0.956 | 0.889 | 0.945 | 0.585 | 0.961 | 0.842 | 0.988 | 0.555 | 1.05 | 1.01 | 0.929 | 0.988 | 1.09 | 1.08 | 1 | 0.654 | 0.616 | 0.542 | 0.623 | 0.394 |
| EBC-1 | 1.05 | 0.974 | 1.13 | 0.927 | 0.512 | 0.497 | 0.567 | 0.475 | 0.315 | 0.328 | 0.363 | 0.304 | 0.0884 | 0.129 | 0.101 | 0.0802 | 0.181 | 0.228 | 0.194 | 0.159 | 0.363 | 0.314 | 0.391 | 0.286 | 0.194 | 0.169 | 0.178 | 0.11 | 1.04 | 0.944 | 0.904 | 0.926 | 0.876 | 0.819 | 0.846 | 0.76 | 0.773 | 0.686 | 0.698 | 0.662 |
